# According to patent publication US6399570B1, “Antimicrobial/endotoxin neutralizing polypeptide” (priority 1999, dated 2002):
# Test system: RAW 264.7 cells
# Assay: Endotoxin induced TNF-α secretion by RAW 264.7 cells
# Type: cell-based, murine
# Description: Suppression of endotoxin-induced TNF-α secretion by a macrophage cell line RAW 264.7 was also measured (Kelly et al., Infect. Immun. 59: 4491-6 (1991)). RAW 264.7 cells secret TNF-α upon exposure to endotoxin (M. R. Ruff and G. E. Gifford, Lymphokines 2: 235-272 (1981)). […] Similar to the results of the LAL assay, the potency of LF-33 varied depending on the type of endotoxin. The LF-33 concentration needed to suppress 50% TNF-α secretion induced by endotoxin (10 ng/ml) was approximately 0.01 μM for E. coli LPS and lipid A, 0.1 μM for LPS from P. aeruginosa, and 0.5 μM for LPS from S. abortus equi and N. meningitidis.
# Endotoxin induced TNF-α secretion by RAW 264.7 cells. The murine macrophage cell line RAW 264.7 was obtained from the American Type Culture Collection (ATCC, Rockville, Md.) and maintained as described previously (Jeremy, B., Immunol. Today. 16: 417-419 (1995)). The concentration of endotoxin in all buffers and media was controlled to below 0.1 EU/ml. The following protocol was essentially described before and used here with minor modifications (Kelly et al., Infect. Immun. 59: 4491-6 (1991)). Each well of a 96-well tissue culture plate was seeded with 150 μl RAW 264.7 cells at 10^6 cells per ml DMEM (Life Technologies, Gaithersburg, Md.) supplemented with 10% heat-treated fetal bovine serum (Life Technologies), 25 mM HEPES (N-2-hydroxyethylpiperazine-N′-2-ethanesulfonic acid; pH 7.3), penicillin (60 U/ml) and streptomycin (60 μg/ml). After overnight incubation at 37° C. in a 6% CO2 incubator, the medium was aspirated and cells washed with 3-changes of endotoxin-free Hank's balanced salt solution (HBSS, Life Technologies) supplemented with 25 mM HEPES (pH 7.3). Control endotoxin (10 ng/ml) and test materials were prepared in HBSS-HEPES. After incubation in a 37° C. water bath for 1 h, 0.2 ml of these solutions was added in triplicate to each well and incubated at 37° C. for 6 h. The supernatants were then collected and stored at −70° C. before the measurement of […] activity. Controls included HBSS-HEPES and test materials in the absence of endotoxin. TNF-α activity of the medium and test materials was below […]. The human serum used in some experiments was a pool from normal donors.
# Determination of TNF activity. TNF-α activity in the culture supernatant was determined based on its cytotoxicity for the mouse fibrosarcoma cell line WEHI 164 cells (ATCC). […] The antibody at 1:100 dilution completely eliminated the cytotoxicity in the culture supernatant of the RAW 264.7 cell stimulated by endotoxin and in the mouse sera collected 1 h after intraperitoneal injection of endotoxin.
# Briefly, the 96-well tissue culture plates were seeded with 100 μl WEHI164 cells (5×10^4 cells) in RPMI-1640 medium (Life Technologies) containing 10% heat-treated fetal bovine serum, 25 mM HEPES (pH 7.3), penicillin (60 U/ml), streptomycin (60 μg/ml), and actinomycin D (4 μg/ml). After a 2-h incubation at 37° C. in a 6% CO2 incubator, 10 μl twofold serially diluted samples (culture supernatants) or standards (murine recombinant TNF-α, Genzyme) was added to each well, and incubated for 20 h. Cell viability was then determined by the addition of 10 μl MTT (Thiazolyl blue, Sigma) stock solution (5 mg/ml in saline) to each well, and the incubation was allowed to continue for 6 h. 180 μl of acid-isopropanol (containing 40 mM HCl) was added to dissolve the generated dark blue crystals. The plate was read at 570 nm with a reference of 630 nm in a microplate reader. The amount of TNF-α that led to 50% killing of the seeded cells was defined as one unit, equivalent to approximately 15 pg of recombinant TNF-α under the present condition. A standard curve was obtained by incubating known amounts of the recombinant TNF-α with the WEHI cells.
smiles,measurement,setting,value
CSCC[C@H](NC(=O)[C@H](CC(N)=O)NC(=O)[C@H](CCCNC(=N)N)NC(=O)[C@H](CCC(N)=O)NC(=O)[C@H](Cc1c[nH]c2ccccc12)NC(=O)[C@H](CCC(N)=O)NC(=O)[C@H](Cc1ccccc1)NC(=O)[C@H](CS)NC(=O)[C@H](CCCCN)NC(=O)[C@@H](NC(=O)[C@H](C)NC(=O)[C@H](CCC(=O)O)NC(=O)[C@@H]1CCCN1C(=O)[C@H](CCC(N)=O)NC(=O)[C@H](CO)NC(=O)[C@@H](NC(=O)[C@H](C)NC(=O)[C@H](CS)NC(=O)[C@H](Cc1c[nH]c2ccccc12)NC(=O)[C@H](CCC(N)=O)NC(=O)[C@@H](N)C(C)C)C(C)C)[C@@H](C)O)C(=O)N[C@@H](CCCNC(=N)N)C(=O)N[C@@H](CCCCN)C(=O)N[C@H](C(=O)N[C@@H](CCCNC(=N)N)C(=O)NCC(=O)N1CCC[C@H]1C(=O)O)C(C)C [LF-27],TNF-α secretion induced by Lipid A,"agent 3 μM, endotoxin 10 ng/ml, control 2,386","3,182 +/− 412 pg/ml"
same,TNF-α secretion induced by S. abortus LPS,"agent 3 μM, endotoxin 10 ng/ml, control 3,969","3,985 +/− 497 pg/ml"
same,TNF-α secretion induced by P. aer. LPS,"agent 3 μM, endotoxin 10 ng/ml, control 4,813","4,633 +/− 603 pg/ml"
same,TNF-α secretion induced by E. coli LPS,"agent 3 μM, endotoxin 10 ng/ml, control 4,928","4,912 +/− 588 pg/ml"
same,TNF-α secretion induced by N. min. LPS,"agent 3 μM, endotoxin 10 ng/ml, control 5,658","7,306 +/− 1008 pg/ml"
same,effect on endotoxin-induced TNF-α secretion,equal molar concentration of LF-27 or 10% human serum,no effect
